Molecular target: T1, hMC2 receptor (crude hMC2R membranes from CRE-bla-CHO-K1 cells stably expressing hMC2 receptor and hMRAP accessory protein) (Homo sapiens, UniProt Q01718)
T1 construct: crude membrane fractions
Assay: hMC2 membrane binding assay ([125I]ACTH (1-39) Tyr23, SPA)
Conditions: displacement of 0.2 nM [125I]ACTH (1-39) Tyr23 from hMC2R membranes, 1.5 hours at room temperature; read-out: MC2R binding potency
In short: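 Ki values come from non-linear regression of SPA scintillation counts, with compounds displacing [125I]ACTH(1-39) Tyr23. Membranes come from CRE-bla-CHO-K1 cells stably expressing hMC2 receptor together with hMRAP. They are preincubated with WGA-coated PVT SPA beads in 50 mM HEPES pH 7.4 with 0.20% BSA, Mg2+, Ca2+ and protease inhibitors.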

T1 sequence (Q01718 whole entry): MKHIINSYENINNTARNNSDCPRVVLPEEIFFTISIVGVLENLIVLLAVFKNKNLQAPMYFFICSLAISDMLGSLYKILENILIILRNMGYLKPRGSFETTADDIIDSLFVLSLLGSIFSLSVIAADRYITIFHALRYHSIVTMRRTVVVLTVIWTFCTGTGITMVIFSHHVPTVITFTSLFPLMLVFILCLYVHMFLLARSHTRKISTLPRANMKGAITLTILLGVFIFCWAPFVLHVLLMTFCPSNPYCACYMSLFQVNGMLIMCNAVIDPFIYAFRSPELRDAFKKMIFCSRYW
T1 sequence (Q8TCY5 whole entry partner): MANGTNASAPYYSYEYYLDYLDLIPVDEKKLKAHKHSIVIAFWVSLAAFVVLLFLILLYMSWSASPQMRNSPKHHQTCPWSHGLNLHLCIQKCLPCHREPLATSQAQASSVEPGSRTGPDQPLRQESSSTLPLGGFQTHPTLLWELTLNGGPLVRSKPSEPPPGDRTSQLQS

Structure (SMILES): CN1CC(NC(=O)C2(c3ccc(-c4cccn4C)nc3)CCN(c3ccc(C(F)(F)F)cc3C#N)CC2)C1 [Compound 1-219, 1-[2-cyano-4-(trifluoromethyl)phenyl]-4-[6-(1-methyl-1H-pyrrol-2-yl)pyridin-3-yl]-N-(1-methylazetidin-3-yl)piperidine-4-carboxamide]
- Ki: < 0.01 µM

Structure (SMILES): COc1ccccc1-c1ccc(C2(NC(=O)N[C@@H]3CCN(C)C3)CCN(c3ccc(C(F)(F)F)cc3C#N)CC2)cn1 [Compound 2-56, 1-{1-[2-cyano-4-(trifluoromethyl)phenyl]-4-[6-(2-methoxyphenyl)pyridin-3-yl]piperidin-4-yl}-3-[(3R)-1-methylpyrrolidin-3-yl]urea]
- Ki: < 0.01 µM

Structure (SMILES): CCOc1ncccc1-c1ccc(C2(NC(=O)CCNC)CCN(c3ccc(C(F)(F)F)cc3C#N)CC2)cn1 [Compound 2-5, N-{1-[2-cyano-4-(trifluoromethyl)phenyl]-4-{2′-ethoxy-[2,3′-bipyridin]-5-yl}piperidin-4-yl}-3-(methylamino)propanamide]
- Ki: < 0.01 µM

Structure (SMILES): COc1ccccc1-c1ccc(C2(NC(=O)O[C@H]3CCN(C)C3)CCN(c3ccc(C(F)(F)F)cc3C#N)CC2)cn1 [Compound 2-53, (3S)-1-methylpyrrolidin-3-yl N-{1-[2-cyano-4-(trifluoromethyl)phenyl]-4-[6-(2-methoxyphenyl)pyridin-3-yl]piperidin-4-yl}carbamate]
- Ki: < 0.01 µM

Structure (SMILES): CNCCNC(=O)C1(c2cnc(-c3ccccc3OC)c(F)c2)CCN(c2ccc(C(F)(F)F)cc2F)CC1 [Compound 1-293, 1-[2-fluoro-4-(trifluoromethyl)phenyl]-4-[5-fluoro-6-(2-methoxyphenyl)pyridin-3-yl]-N-[2-(methylamino)ethyl]piperidine-4-carboxamide]
- Ki: < 0.01 µM

Structure (SMILES): C[C@@H](CN(C)C)NC(=O)C1(c2cnc(-c3cccn3C)c(F)c2)CCN(c2ccc(C(F)(F)F)cc2C#N)CC1 [Compound 1-324, 1-[2-cyano-4-(trifluoromethyl)phenyl]-N-[(2S)-1-(dimethylamino)propan-2-yl]-4-[5-fluoro-6-(1-methyl-1H-pyrrol-2-yl)pyridin-3-yl]piperidine-4-carboxamide]
- Ki: < 0.01 µM

Structure (SMILES): Cc1sccc1-c1ccc(C2(C(=O)N[C@H]3CCN(C)C3)CCN(c3ccc(C(F)(F)F)cc3C#N)CC2)cn1 [Compound 1-122, 1-[2-cyano-4-(trifluoromethyl)phenyl]-N-[(3S)-1-methylpyrrolidin-3-yl]-4-[6-(2-methylthiophen-3-yl)pyridin-3-yl]piperidine-4-carboxamide]
- Ki: < 0.01 µM

Structure (SMILES): CCOc1ncccc1-c1ncc(C2(C(=O)N[C@@H](C)CNC)CCN(c3ccc(C(F)(F)F)cc3C#N)CC2)cc1F [Compound 1-320, 1-[2-cyano-4-(trifluoromethyl)phenyl]-4-{2′-ethoxy-3-fluoro-[2,3′-bipyridin]-5-yl}-N-[(2S)-1-(methylamino)propan-2-yl]piperidine-4-carboxamide]
- Ki: < 0.01 µM

Structure (SMILES): CCOc1ncccc1-c1ccc(C2(C(=O)NC[C@@H](C)N(C)C)CCN(c3ccc(C(F)(F)F)cc3C#N)CC2)cn1 [Compound 1-333, 1-[2-cyano-4-(trifluoromethyl)phenyl]-N-[(2R)-2-(dimethylamino)propyl]-4-{2′-ethoxy-[2,3′-bipyridin]-5-yl}piperidine-4-carboxamide]
- Ki: < 0.01 µM

Structure (SMILES): CCOc1ccccc1-c1ccc(C2(C(=O)N[C@H]3CCN(C)C3)CCN(c3ccc(C(F)(F)F)cc3F)CC2)cn1 [Compound 1-145, 4-[6-(2-ethoxyphenyl)pyridin-3-yl]-1-[2-fluoro-4-(trifluoromethyl)phenyl]-N-[(3S)-1-methylpyrrolidin-3-yl]piperidine-4-carboxamide]
- Ki: < 0.01 µM

Structure (SMILES): Cn1cccc1-c1ccc(C2(C(=O)NC34CCN(CC3)C4)CCN(c3ccc(C(F)(F)F)cc3C#N)CC2)cn1 [Compound 1-221, N-{1-azabicyclo[2.2.1]heptan-4-yl}-1-[2-cyano-4-(trifluoromethyl)phenyl]-4-[6-(1-methyl-1H-pyrrol-2-yl)pyridin-3-yl]piperidine-4-carboxamide]
- Ki: 0.01 to 0.1 µM

Structure (SMILES): CN1CC[C@@H](NC(=O)C2(c3ccc(-c4ccccc4OC4CC4)nc3)CCN(c3ccc(C(F)(F)F)cc3C#N)CC2)C1 [Compound 1-89, 1-[2-cyano-4-(trifluoromethyl)phenyl]-4-[6-(2-cyclopropoxyphenyl)pyridin-3-yl]-N-[(3R)-1-methylpyrrolidin-3-yl]piperidine-4-carboxamide]
- Ki: < 0.01 µM

Structure (SMILES): CCOc1ncccc1-c1ccc(C2(OC(=O)NCCN(C)C)CCN(c3ccc(C(F)(F)F)cc3C#N)CC2)cc1 [Compound 2-2, 1-[2-cyano-4-(trifluoromethyl)phenyl]-4-[4-(2-ethoxypyridin-3-yl)phenyl]piperidin-4-yl N-[2-(dimethylamino)ethyl]carbamate]
- Ki: 0.01 to 0.1 µM

Structure (SMILES): COc1ncccc1-c1ccc(C2(C(=O)N[C@@H]3CCN(C)C3)CCN(c3ccc(C(F)(F)F)cc3C#N)CC2)cn1 [Compound 1-98, 1-[2-cyano-4-(trifluoromethyl)phenyl]-4-{2′-methoxy-[2,3′-bipyridin]-5-yl}-N-[(3R)-1-methylpyrrolidin-3-yl]piperidine-4-carboxamide]
- Ki: < 0.01 µM

Structure (SMILES): CCOc1ncccc1-c1ccc(C2(C(=O)N[C@@H]3CCNC3)CCN(c3ccc(C(F)(F)F)cc3C#N)CC2)cc1 [Compound 1-2, 1-[2-cyano-4-(trifluoromethyl)phenyl]-4-[4-(2-ethoxypyridin-3-yl)phenyl]-N-[(3R)-pyrrolidin-3-yl]piperidine-4-carboxamide]
- Ki: < 0.01 µM

Structure (SMILES): CN(C)CCNC(=O)C1(c2ccc(-c3cccn3C)nc2)CCN(c2ccc(C(F)(F)F)cc2Cl)CC1 [Compound 1-282, 1-[2-chloro-4-(trifluoromethyl)phenyl]-N-[2-(dimethylamino)ethyl]-4-[6-(1-methyl-1H-pyrrol-2-yl)pyridin-3-yl]piperidine-4-carboxamide]
- Ki: < 0.01 µM

Structure (SMILES): CN1CC[C@H](NC(=O)NC2(c3ccc(-c4cccn4C)nc3)CCN(c3ccc(C(F)(F)F)cc3C#N)CC2)C1 [Compound 2-43, 1-{1-[2-cyano-4-(trifluoromethyl)phenyl]-4-[6-(1-methyl-1H-pyrrol-2-yl)pyridin-3-yl]piperidin-4-yl}-3-[(3S)-1-methylpyrrolidin-3-yl]urea]
- Ki: < 0.01 µM

Structure (SMILES): CNCCNC(=O)C1(c2ccc(-c3ccccc3OC)nc2)CCN(c2ccc(C(F)(F)F)cc2F)CC1 [Compound 1-256, 1-[2-fluoro-4-(trifluoromethyl)phenyl]-4-[6-(2-methoxyphenyl)pyridin-3-yl]-N-[2-(methylamino)ethyl]piperidine-4-carboxamide]
- Ki: < 0.01 µM

Structure (SMILES): CNCCNC(=O)C1(c2cnc(-c3ccccc3OC)c(F)c2)CCN(c2ccc(C(F)(F)F)cc2Cl)CC1 [Compound 1-294, 1-[2-chloro-4-(trifluoromethyl)phenyl]-4-[5-fluoro-6-(2-methoxyphenyl)pyridin-3-yl]-N-[2-(methylamino)ethyl]piperidine-4-carboxamide]
- Ki: 0.01 to 0.1 µM

Structure (SMILES): CN(C)CCNC(=O)C1(c2cnc(-c3cccn3C)c(F)c2)CCN(c2ccc(C(F)(F)F)cc2Cl)CC1 [Compound 1-309, 1-[2-chloro-4-(trifluoromethyl)phenyl]-N-[2-(dimethylamino)ethyl]-4-[5-fluoro-6-(1-methyl-1H-pyrrol-2-yl)pyridin-3-yl]piperidine-4-carboxamide]
- Ki: < 0.01 µM

Structure (SMILES): COc1ccccc1-c1ccc(C2(C(=O)N[C@@H]3CN(C)C[C@@H]3F)CCN(c3ccc(C(F)(F)F)cc3C#N)CC2)cn1 [Compound 1-242, 1-[2-cyano-4-(trifluoromethyl)phenyl]-N-[(3R,4S)-4-fluoro-1-methylpyrrolidin-3-yl]-4-[6-(2-methoxyphenyl)pyridin-3-yl]piperidine-4-carboxamide]
- Ki: < 0.01 µM

Structure (SMILES): Cn1cccc1-c1ccc(C2(C(=O)N[C@@H]3C[C@@H]3N)CCN(c3ccc(C(F)(F)F)cc3C#N)CC2)cn1 (racemic) [Compound 1-258, rac-N-[(1R,2S)-2-aminocyclopropyl]-1-[2-cyano-4-(trifluoromethyl)phenyl]-4-[6-(1-methyl-1H-pyrrol-2-yl)pyridin-3-yl]piperidine-4-carboxamide]
- Ki: < 0.01 µM

Structure (SMILES): CN1CC[C@H](NC(=O)C2(c3ccc(-c4cccn4C)nc3)CCN(c3ccc(C(F)(F)F)cc3F)CC2)C1 [Compound 1-173, 1-[2-fluoro-4-(trifluoromethyl)phenyl]-4-[6-(1-methyl-1H-pyrrol-2-yl)pyridin-3-yl]-N-[(3S)-1-methylpyrrolidin-3-yl]piperidine-4-carboxamide]
- Ki: < 0.01 µM

Structure (SMILES): CCc1ccccc1-c1ccc(C2(C(=O)N[C@H]3CCN(C)C3)CCN(c3ccc(C(F)(F)F)cc3Cl)CC2)cn1 [Compound 1-156, 1-[2-chloro-4-(trifluoromethyl)phenyl]-4-[6-(2-ethylphenyl)pyridin-3-yl]-N-[(3S)-1-methylpyrrolidin-3-yl]piperidine-4-carboxamide]
- Ki: < 0.01 µM

Structure (SMILES): CCOc1ncccc1-c1ccc(C2(C(=O)NC[C@@H](CO)NC)CCN(c3ccc(C(F)(F)F)cc3C#N)CC2)cn1 [Compound 1-47, 1-[2-cyano-4-(trifluoromethyl)phenyl]-4-{2′-ethoxy-[2,3′-bipyridin]-5-yl}-N-[(2S)-3-hydroxy-2-(methylamino)propyl]piperidine-4-carboxamide]
- Ki: < 0.01 µM

Structure (SMILES): CN1CC[C@@H](NC(=O)C2(c3ccc(-c4cccc(F)c4)nc3)CCN(c3ccc(C(F)(F)F)cc3C#N)CC2)C1 [Compound 1-64, 1-[2-cyano-4-(trifluoromethyl)phenyl]-4-[6-(3-fluorophenyl)pyridin-3-yl]-N-[(3R)-1-methylpyrrolidin-3-yl]piperidine-4-carboxamide]
- Ki: < 0.01 µM

Structure (SMILES): CCOc1ncccc1-c1ccc(C2(C(=O)N[C@@H]3CCN(C)C3)CCN(c3ccc(C(F)(F)F)cc3OC)CC2)cc1 [Compound 1-159, 4-[4-(2-ethoxypyridin-3-yl)phenyl]-1-[2-methoxy-4-(trifluoromethyl)phenyl]-N-[(3R)-1-methylpyrrolidin-3-yl]piperidine-4-carboxamide]
- Ki: 0.01 to 0.1 µM
